Legend:
[1] = [M+H]+; instrument: TW
[2] = instrument: TW, calibrated with phosphatidylcholines (ESI+) and phosphatidylethanolamines (ESI-), doubly charged cardiolipins calibrated with poly-DL-…

Structure (SMILES)	collision cross section (N2) [1] [Å²]	other results
O=C(CCCN1CCN(c2ccccn2)CC1)c1ccc(F)cc1 [Azaperone]	180.3	–
CC(NC(=O)C(NC(=O)O)C(C)C)c1nc2ccc(F)cc2s1 (centres undefined) [Benthiavalicarb]	173.38	–
O=C(Nc1ccccc1-c1ccc(Cl)cc1)c1cccnc1Cl [Boscalid]	171.67	–
CC(C)(C)NCC(O)c1cc(Br)c(N)c(Br)c1 (centres undefined) [Brombuterol]	167	–
CCCCCC/C=C\CCCCCCCC(=O)OCC(COP(=O)(O)OCC(O)COP(=O)(O)OCC(COC(=O)CCCCCCC/C=C/CCCCCCCC)OC(=O)CCCCCCC/C=C\CCCCCC)OC(=O)CCCCCCC/C=C\CCCCCCCC (centres undefined) [CL(68:4)]	–	collision cross section (N2) ([2]; [M-2H]2-): 406.81 Å²
CCCCCCCC/C=C\CCCCCCCC(=O)OC(COC(=O)CCCCCCCCCCCCCCC)COP(=O)(O)OCC(O)COP(=O)(O)OCC(COC(=O)CCCCCCCC1CC1CCCCCCCC)OC(=O)CCCCCCCCCCCCCCC (centres undefined) [CL(69:2)]	–	collision cross section (N2) ([2]; [M-2H]2-): 408.93 Å²
CCCCCC/C=C\CCCCCCCC(=O)OCC(COP(=O)(O)OCC(O)COP(=O)(O)OCC(COC(=O)CCCCCCCC1CC1CCCCCCCC)OC(=O)CCCCCCC/C=C\CCCCCC)OC(=O)CCCCCCC/C=C\CCCCCCCC (centres undefined) [CL(69:4)]	–	collision cross section (N2) ([2]; [M-2H]2-): 409.28 Å²
Nc1c(Cl)cc(C(O)CNC2CCC(O)CC2)cc1Cl (centres undefined) [Clencyclohexerol]	164.7	–
C[C@H]1C[C@H]2[C@@H]3CCC4=CC(=O)C=C[C@]4(C)[C@@]3(F)[C@@H](O)C[C@]2(C)[C@@]1(O)C(=O)CCl [Clobetasol]	201.29	–
C[C@]12CC[C@H]3[C@@H](CCC4=C(Cl)C(=O)CC[C@@]43C)[C@@H]1CC[C@@H]2O [Clostebol]	173.6	–
COP(=O)(OC)OC=C(Cl)Cl [Dichlorvos]	133.07	–
O=C(O)Cc1ccccc1Nc1c(Cl)cccc1Cl [Diclofenac]	157.2	–
Fc1ccc(cc1)N\3c2cc(c(F)cc2C(=O)C(/C(=O)O)=C/3)N4CCN(C)CC4 [Difloxacine]	192.3	–
O=C(NC(=O)c1c(F)cccc1F)Nc1ccc(Cl)cc1 [Diflubenzuron]	160.98	–
C[C@H]1c2cccc(O)c2C(=O)C2=C(O)[C@]3(O)C(=O)C(C(N)=O)=C(O)[C@@H](N(C)C)[C@@H]3[C@@H](O)[C@@H]21 [Doxycycline]	197.4	–
O=C(O)\C3=C\N(c2cc(N1CCN(CC)CC1)c(F)cc2C3=O)C4CC4 [Enrofloxacine]	194.8	–
CCOP(=O)(NC(C)C)Oc1ccc(S(C)(=O)=O)c(C)c1 (centres undefined) [Fenamiphos sulfone]	179.48	–

Structure (SMILES)	collision cross section (N2) [1] [Å²]	other results
CC(Cc1ccc(O)cc1)NCC(O)c1cc(O)cc(O)c1 (centres undefined) [Fenoterol]	180.4	–
CCOC(=O)NCCOc1ccc(Oc2ccccc2)cc1 [Fenoxycarb]	178.44	–
CC(Oc1ccc(Oc2ccc(C(F)(F)F)cn2)cc1)C(=O)O (centres undefined) [Fluazifop]	173.47	–
Cc1c(Nc2ncccc2C(=O)O)cccc1C(F)(F)F [Flunixin]	159.1	–
CC(C)Oc1cccc(NC(=O)c2ccccc2C(F)(F)F)c1 [Flutolanil]	175.45	–
COC(=O)C(C)N(C(=O)c1ccco1)c1c(C)cccc1C (centres undefined) [Furalaxyl]	167.15	–
CCCN1C[C@H](C)[C@@H](O)[C@](C)(O)[C@@H](CC)OC(=O)[C@H](C)[C@@H](O[C@H]2C[C@@](C)(OC)[C@@H](O)[C@H](C)O2)[C@H](C)[C@@H](O[C@@H]2O[C@H](C)C[C@H](N(C)C)[C@H]2O)[C@](C)(O)C[C@H]1C [Gamithromycin]	280.6	–
CC(Oc1ccc(Oc2ncc(C(F)(F)F)cc2Cl)cc1)C(=O)O (centres undefined) [Haloxyfop]	179.86	–
COP(=O)(OC)OC1=C(Cl)C2C=CCC12 (centres undefined) [Heptenophos]	144.04	–
CCCCC(O)(Cn1cncn1)c1ccc(Cl)cc1Cl (centres undefined) [Hexaconazole]	171.26	–
CC(C(=O)O)c1ccc(N2Cc3ccccc3C2=O)cc1 (centres undefined) [Indoprofen]	166.4	–
CC(C)c1ncc([N+](=O)[O-])n1C [Ipronidazole]	126.1	–
CCCCCCC1CC1CCCCCCCC(=O)O[C@H](CO)COP(=O)([O-])OCC[NH3+] (some centres undefined) [LPE(0:0/17:1)]	–	collision cross section (N2) ([2]; [M+H]+): 214.85 Å²; collision cross section (N2) ([2]; [M+Na]+): 219.32 Å²; collision cross section (N2) ([2]; [M-H]-): 207.62 Å²
CCCCCCCCC1CC1CCCCCCCC(=O)O[C@H](CO)COP(=O)([O-])OCC[NH3+] (some centres undefined) [LPE(0:0/19:1)]	–	collision cross section (N2) ([2]; [M+H]+): 221.32 Å²; collision cross section (N2) ([2]; [M+Na]+): 226.07 Å²; collision cross section (N2) ([2]; [M-H]-): 214.39 Å²
CCCCCC/C=C/CCCCCCCC(=O)OC[C@@H](O)COP(=O)([O-])OCC[NH3+] [LPE(16:1/0:0)]	–	collision cross section (N2) ([2]; [M+H]+): 206.28 Å²; collision cross section (N2) ([2]; [M+Na]+): 211.09 Å²; collision cross section (N2) ([2]; [M-H]-): 203.75 Å²
CCCCCCCCCCCCCCC(=O)O[C@H](CO)COP(=O)(O)OCC(O)CO (some centres undefined) [LPG(15:0)]	–	collision cross section (N2) ([2]; [M-H]-): 208.96 Å²
